Entries after “also recorded” stand apart in the source; their conditions may differ.
Assay: Relative stability of isolated solid forms (slurry experiments, XRD)
Type: physicochemical
Conditions: for relative stability of the solid form: as isolated solids
Method: A number of polymorphic forms of (R)-4-(4-(4-(2H-1,2,3-triazol-2-yl)phenyl)-2-oxopyridin-1 (2H)-yl)-N-hydroxy-2-methyl-2-(methylsulfonyl)-butanamide were prepared (Forms 1, 2 and 3) as API slurries in a number of protic and aprotic solvents. With the exception of acetonitrile, methyl ethyl ketone, and tetrahydrofuran, the use of aprotic solvents like ethyl, butyl or propyl acetate result in Form 1. With the exception of water, the use of protic solvents such as butyl, propyl and ethyl alcohol favor the formation of Form 2. An unstable Form 3 was also noted. The presence of water in alcohols increased the rate of Form 2 isolation from solution. […] The three forms were structurally related and were solvated and/or hydrated.
The relative stability of the three isolated solid forms appears to be different as suspensions compared to isolated solids. […] As suspensions, the relative stability of these solvates is dependent on the solvent or solvent/water mixture that is present.
It is very likely that these three solvated solids are nearly isostructural and differ in subtle ways that are linked to the way solvent or water are packed into the solvation sites in the structure. There is an increasing complexity of the XRD patterns with Form 1 being the most complex (most peaks) and Form 3 having the fewest peaks. This pattern complexity (F1>F2>F3) parallels the apparent stability of the dried isolated samples. Out of 384 solvent mixtures, a total of 90 samples were mixtures rather than pure phase Forms.
The X-ray diffractograms were obtained on a Scintag X1 powder diffractometer equipped with a Peltier cooled solid state detector. Data were collected between 4 and 40° 20 using a 0.03° step size and data acquisition time was 45 to 60 minutes for sample characterization. Data collection for solids isolated from the bulk of the small scale preliminary experiments was at a 0.04° step size over 15 minutes between 7 and 37 degrees 2-theta. Copper Kα radiation (λ=1.54056 Å) was utilized and the tube voltage and amperage were set to 45 kV and 40 mA, respectively. […]

Compound | relative stability of the solid form | stability of the solid form / form conversion (by XRD patterns of isolated solids from slurries)
C[C@@](CCn1ccc(-c2ccc(-n3nccn3)cc2)cc1=O)(C(=O)NO)S(C)(=O)=O [Form 1, (R)-4-(4-(4-(2H-1,2,3-triazol-2-yl)phenyl)-2-oxopyridin-1 (2H)-yl)-N-hydroxy-2-methyl-2-(methylsulfonyl)-butanamide] | most stable form | –
C[C@@](CCn1ccc(-c2ccc(-n3nccn3)cc2)cc1=O)(C(=O)NO)S(C)(=O)=O [Form 2, (R)-4-(4-(4-(2H-1,2,3-triazol-2-yl)phenyl)-2-oxopyridin-1 (2H)-yl)-N-hydroxy-2-methyl-2-(methylsulfonyl)-butanamide] | meta-stable relative to Form 1 | –
C[C@@](CCn1ccc(-c2ccc(-n3nccn3)cc2)cc1=O)(C(=O)NO)S(C)(=O)=O [Form 3, (R)-4-(4-(4-(2H-1,2,3-triazol-2-yl)phenyl)-2-oxopyridin-1 (2H)-yl)-N-hydroxy-2-methyl-2-(methylsulfonyl)-butanamide] | – | unstable; also recorded: meta-stable and converts to Form 2
